According to PubChem BioAssay AID256 (DTP/NCI, 2004):
Where “and” joins values, the source holds several entries; their conditions need not be identical. Identical values can stand only once. Inconclusive results and toxic doses are left out. The calls were made as follows: active = survival T/C of 150% or more; inactive = T/C below 125% in these data.

System: CD2F1 mice, L1210 leukemia ip, survival T/C
Experiment: NCI In Vivo Anticancer Drug Screen. Data for tumor model L1210 Leukemia (intraperitoneal) in CD2F1 (CDF1) mice
Conditions: endpoint: mean survival time, higher = longer survival
How it was run: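 Ratio T/C, where T is the treated-group value and C the vehicle-dosed control value, from mice implanted with a transplantable tumor.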

[1] = dose: 50.0 mg/kg/injection, schedule: Q01DX009 (ip), vehicle: saline with Tween-80
[2] = dose: 100.0 mg/kg/injection, schedule: Q01DX009 (ip), vehicle: saline with Tween-80
[3] = dose: 200.0 mg/kg/injection, schedule: Q01DX009 (ip), vehicle: saline with Tween-80
[4] = dose: 12.5 mg/kg/injection, schedule: Q01DX009 (ip), vehicle: saline with Tween-80
[5] = dose: 25.0 mg/kg/injection, schedule: Q01DX009 (ip), vehicle: saline with Tween-80
[6] = dose: 12.5 mg/kg/injection, schedule: Q01DX005 (ip), vehicle: distilled water + Tween-80
[7] = dose: 25.0 mg/kg/injection, schedule: Q01DX005 (ip), vehicle: distilled water + Tween-80
[8] = dose: 50.0 mg/kg/injection, schedule: Q01DX005 (ip), vehicle: distilled water + Tween-80
[9] = dose: 100.0 mg/kg/injection, schedule: Q01DX005 (ip), vehicle: distilled water + Tween-80
[10] = dose: 200.0 mg/kg/injection, schedule: Q01DX005 (ip), vehicle: distilled water + Tween-80
[11] = dose: 400.0 mg/kg/injection, schedule: Q01DX009 (ip), vehicle: saline with Tween-80
[12] = dose: 100.0 mg/kg/injection, schedule: Q04DX003 (ip), vehicle: saline with Tween-80
[13] = dose: 200.0 mg/kg/injection, schedule: Q04DX003 (ip), vehicle: saline with Tween-80

Measured: T/C

COc1cc(Cl)ccc1NC(=O)Nc1cc(C)on1
inactive: [1] 100 % of control | [2] 95 % of control | [3] 95 % of control

CN(N=O)C(=O)NCC1CCC(CNC(=O)N(C)N=O)CC1 (centres undefined)
inactive: dose: 100.0 mg/kg/injection, schedule: Q01DX001 (ip), vehicle: carboxymethylcellulose (CMC) 96 % of control | dose: 200.0 mg/kg/injection, schedule: Q01DX001 (ip), vehicle: carboxymethylcellulose (CMC) 88 % of control and 98 % of control | dose: 300.0 mg/kg/injection, schedule: Q01DX001 (ip), vehicle: carboxymethylcellulose (CMC) 98 % of control and 93 % of control | dose: 400.0 mg/kg/injection, schedule: Q01DX001 (ip), vehicle: carboxymethylcellulose (CMC) 101 % of control and 108 % of control | dose: 500.0 mg/kg/injection, schedule: Q01DX001 (ip), vehicle: carboxymethylcellulose (CMC) 106 % of control and 107 % of control | dose: 600.0 mg/kg/injection, schedule: Q01DX001 (ip), vehicle: carboxymethylcellulose (CMC) 104 % of control | dose: 800.0 mg/kg/injection, schedule: Q01DX001 (ip), vehicle: carboxymethylcellulose (CMC) 111 % of control | dose: 1000.0 mg/kg/injection, schedule: Q01DX001 (ip), vehicle: carboxymethylcellulose (CMC) 112 % of control

c1ccc2c(c1)c1ccccc1n2CCCCn1c2ccccc2c2ccccc21
inactive: [4] 95 % of control | [5] 87 % of control | [1] 101 % of control and 102 % of control | [2] 97 % of control | [3] 93 % of control

Cc1cn(C2CC(O)C(COC(c3ccccc3)(c3ccccc3)c3ccc(OCC(=O)O)cc3)O2)c(=O)[nH]c1=O (centres undefined)
inactive: [6] 100 % of control | [7] 97 % of control | [8] 96 % of control | [9] 102 % of control | [10] 94 % of control

COC1OC(COC(=O)c2ccccc2)C(N(C)C(C)=O)C1OC(=O)c1ccccc1 (centres undefined)
inactive: dose: 75.0 mg/kg/injection, schedule: Q01DX001 (ip), vehicle: other 97 % of control | dose: 150.0 mg/kg/injection, schedule: Q01DX001 (ip), vehicle: other 103 % of control | dose: 300.0 mg/kg/injection, schedule: Q01DX001 (ip), vehicle: other 91 % of control

NC(=O)NC(CC(=O)O)C(=O)O (centres undefined)
inactive: [2] 96 % of control | [3] 98 % of control | [11] 95 % of control

c1ccc2[nH]c(CN3CCCCC3)cc2c1
inactive: [4] 106 % of control | [5] 100 % of control | [1] 90 % of control

Cc1cc(C)c(C)c(S(=O)(=O)O)c1C
inactive: [1] 102 % of control | [2] 102 % of control | [12] 101 % of control | [13] 89 % of control

CCOc1nc(=O)n(C2OC(CO)C(O)C2O)s1 (centres undefined)
inactive: [6] 100 % of control | [7] 101 % of control | [8] 101 % of control | [9] 97 % of control | [10] 102 % of control

C=C(Br)CN=C=S
inactive: dose: 12.5 mg/kg/injection, schedule: Q04DX003 (ip), vehicle: saline 94 % of control | dose: 25.0 mg/kg/injection, schedule: Q04DX003 (ip), vehicle: saline 94 % of control | dose: 50.0 mg/kg/injection, schedule: Q04DX003 (ip), vehicle: saline 88 % of control

CCCCCCCCCCCCCCCC(CCCCCC)CCCCCC
inactive: dose: 100.0 mg/kg/injection, schedule: Q01DX001 (ip), vehicle: saline sonified 102 % of control | dose: 200.0 mg/kg/injection, schedule: Q01DX001 (ip), vehicle: saline sonified 98 % of control | dose: 400.0 mg/kg/injection, schedule: Q01DX001 (ip), vehicle: saline sonified 102 % of control

Nc1ccc2[nH]c(=S)sc2c1
inactive: [12] 94 % of control | [13] 92 % of control | dose: 400.0 mg/kg/injection, schedule: Q04DX003 (ip), vehicle: saline with Tween-80 90 % of control

CC(=O)Nc1c(Cl)c(Cl)c(Cl)c2c1-c1ccc(Cl)cc1C2
inactive: dose: 100.0 mg/kg/injection, schedule: Q01DX001 (ip), vehicle: saline with Tween-80 95 % of control | [2] 98 % of control | dose: 200.0 mg/kg/injection, schedule: Q01DX001 (ip), vehicle: saline with Tween-80 101 % of control | [3] 103 % of control | dose: 400.0 mg/kg/injection, schedule: Q01DX001 (ip), vehicle: saline with Tween-80 100 % of control | [11] 103 % of control
